Tested on: PBS pH 7.4 stability, LC-MS/MS, 48 h
Experiment: Inhibitors of Human alpha-Glucosidase: PBS Stability Profiling
Details: at 20 µM; stronger effect = higher value
From the text: Alpha-glucosidase is responsible for the hydrolysis of terminal, non-reducing 1,4-linked alpha-D-glucose residues, which releases alpha-D-glucose. It is a lysosomal hydrolase that is required for the degradation of a small percentage (1-3%) of cellular glycogen in humans. Deficiency of this enzyme results in glycogen-storage disease type II (GSDII), also referred to as Pompe disease, an autosomal recessive disorder. Structurally normal glycogen is accumulated in the lysosomes and cytoplasm in affected patients, primarily in muscle tissues. Excessive glycogen storage within lysosomes may interrupt normal functioning of other organelles and leads to cellular injury. In turn, this leads to enlargement and dysfunction of the entire organ involved (eg: cardiomyopathy and muscle weakness). The stability of the lead compound in PBS buffer is tested because this parameter has a significant impact on many ADME-concerned properties of drugs, such as uptake, distribution, transport, and eventually bioavailability. NIH Chemical Genomics Center [NCGC] NIH Molecular Libraries Probe Production Centers Network [MLPCN] […]
20uM of compound is incubated in PBS buffer at pH 7.4 at […]; the reference compound is procaine. Compounds are incubated at 37 deg C for the pre-determined time periods and the when aliquots are removed. Samples are analyzed with LC-MS/MS.

percent remaining: 100%
Compound: CC(=O)c1ccc(N2CCN(S(=O)(=O)c3ccc4c(c3)CC(=O)N4)CC2)cc1
